Read-outs that look alike come from different tables or passages of the source.
How the values were obtained:
[1] = system: cervical squamous cell carcinoma and endocervical adenocarcinoma (CESC) patient-derived organoids; test: ATP-based viability assay in patient-derived organoids, CESC; format: cell-based; details: Homo sapiens, CESC PDOs, read-out: IC50, organoid viability
Protocol: Organoid culture was performed according to previously established protocols. Briefly, we procured patient-derived tissue samples provided and technically manipulated by Accurate International Biotechnology Co., Ltd. Subsequently, these samples were subjected to mechanical and enzymatic dissociation to disaggregate the tissue into single cells or small clusters, while preserving cellular integrity. Following this initial step, the isolated cells or tissue fragments were embedded within a 3D ECM scaffold, such as Matrigel or collagen. The ECM scaffold served as a supportive substrate, promoting cellular self-organization and mimicking native tissue architecture. Additionally, a precisely formulated cocktail of growth factors, cytokines, and signaling molecules tailored to the specific tissue of interest was meticulously formulated and added to the culture medium to facilitate organoid growth and maintenance.

PD-L1 = PD-L1 protein level in SiHa cells, Western blot; format: cell-based, human; details: 36 h
Protocol: (§1) RIPA lysis buffer (Beyotime, China) mixed with 1% protease inhibitor (Sigma, US) was added to the cells, and a sample of total protein was obtained and then loaded onto an 8% or 12% polyacrylamide gel. The gel was placed in a buffer solution, and an electric current was applied. The separated proteins were subsequently transferred from the gel onto a PVDF membrane. Next, the membrane was blocked with 5% milk for 1 h to prevent nonspecific antibody binding. The membranes were subsequently incubated with anti-NAT10 (1:1000, Abcam, USA), anti-PD-L1 (1:1000, Proteintech, China), anti-HIF-1α (1:1000, Abmart, China), and anti-β-tubulin (1:1000, Proteintech, China) primary antibodies for 12 h. Afterward, the membrane was sequentially washed with 1× TBST and incubated for 1 h with an antimouse secondary antibody (1:6000, Elabscience, China) or antirabbit secondary antibody (1:6000, Elabscience, China). The target proteins were detected via chemiluminescence with a ChemiDoc MP Imaging System (Bio-Rad, US).

[2] = Pharmacokinetic study in male SD rats; format: in vivo; details: Sprague-Dawley (SD), rat, plasma; for AUC(0-t): 0–24 h; for MRT last: read-out: MRT(0−t); for MRT inf: read-out: MRT(0−∞)
Protocol: Male SD rats (180–220 g) were purchased from Beijing Vital River Laboratory Animal Technology Co., Ltd. Blood samples (0.25 mL) were collected from the tail vein at 0.0833, 0.25, 0.5, 1, 2, 4, 6, 8, and 24 h after oral (10 mg/kg) or intravenous (2 mg/kg) administration of compound NP1192. Drug concentrations in the samples were determined by using liquid chromatography–mass spectrometry (LC-MS/MS). The mobile phase consisted of a mixture of solvent A (acetonitrile) and solvent B (formic acid/ultrapure water, 1:1000, v/v). The flow rate of the mobile phase was 0.3 mL/min, and the injection volume was 10 μL.

NAT10 = biological target: T1, NAT10 (Homo sapiens, UniProt Q9H0A0); test: NAT10 degradation in SiHa cells, Western blot; format: cell-based
T1 construct: depletion of total NAT10 protein in SiHa (human) and U14 (murine) CCa cell lines; endogenous in cells; host or cells: SiHa (human cervical cancer cell line)
T1 sequence (Q9H0A0 1-1025): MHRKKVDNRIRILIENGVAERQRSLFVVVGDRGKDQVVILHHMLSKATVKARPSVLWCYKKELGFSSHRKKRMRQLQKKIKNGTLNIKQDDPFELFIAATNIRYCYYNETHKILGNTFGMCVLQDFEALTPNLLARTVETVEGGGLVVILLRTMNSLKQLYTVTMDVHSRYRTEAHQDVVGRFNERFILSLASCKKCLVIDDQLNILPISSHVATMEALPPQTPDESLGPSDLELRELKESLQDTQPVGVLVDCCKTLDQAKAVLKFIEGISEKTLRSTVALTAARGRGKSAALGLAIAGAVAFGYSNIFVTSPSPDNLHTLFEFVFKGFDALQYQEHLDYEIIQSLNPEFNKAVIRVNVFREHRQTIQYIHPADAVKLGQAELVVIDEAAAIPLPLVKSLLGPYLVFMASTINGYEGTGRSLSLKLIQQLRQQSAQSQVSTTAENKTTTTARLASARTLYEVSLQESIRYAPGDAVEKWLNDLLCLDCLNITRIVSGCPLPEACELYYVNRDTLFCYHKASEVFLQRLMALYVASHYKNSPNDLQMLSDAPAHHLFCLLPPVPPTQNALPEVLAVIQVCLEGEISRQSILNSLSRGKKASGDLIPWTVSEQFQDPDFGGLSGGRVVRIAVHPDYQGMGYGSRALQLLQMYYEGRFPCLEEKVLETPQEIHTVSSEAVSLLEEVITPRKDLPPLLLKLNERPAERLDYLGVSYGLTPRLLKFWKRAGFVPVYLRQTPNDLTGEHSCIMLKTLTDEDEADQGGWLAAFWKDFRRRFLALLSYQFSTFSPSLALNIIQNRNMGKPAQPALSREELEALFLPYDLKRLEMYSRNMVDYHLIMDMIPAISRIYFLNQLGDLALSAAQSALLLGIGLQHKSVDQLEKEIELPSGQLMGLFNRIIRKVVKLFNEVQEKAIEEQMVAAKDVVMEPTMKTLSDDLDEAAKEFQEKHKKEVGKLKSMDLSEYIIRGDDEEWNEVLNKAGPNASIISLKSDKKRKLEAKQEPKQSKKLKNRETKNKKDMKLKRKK
Protocol: The human CCa cell line SiHa and the normal epithelial foreskin fibroblast line HFF-1 were purchased from the Cell Bank of the Chinese Academy of Sciences. Additionally, murine cervical carcinoma cell line U14 (RRID:CVCL_9U56) was purchased from Boster Company. HFF-1 and U14 cells were cultured in Dulbecco’s modified Eagle’s medium (DMEM) (Gibco, USA) supplemented with 10% heat-inactivated fetal bovine serum (FBS; Gibco, USA), while SiHa cells were incubated in RPMI 1640 medium (Gibco, USA) in a humid atmosphere with 5% CO2 at 37 °C. For hypoxia exposure, the cells were incubated in a sealed culture tank containing 5% CO2 and 0.1% O2 (MGC, Japan) for 36 h.
as §1

With N#Cc1ccc(-c2csc(N(CCCCCCC(=O)N3CCN(c4cccc5c4C(=O)N(C4CCC(=O)NC4=O)C5=O)CC3)N=C3CCCC3)n2)cc1 (stereo not drawn) [NP1192] the IC50 [1] was 3.05 µM, the PD-L1 protein level (PD-L1) was “pronounced downregulation of PD-L1” and the Cmax ([2]; iv, i.v. 2 mg/kg) was 0.759 ± 0.134 µg/mL. It also gave an AUC(0-t) ([2]; iv, i.v. 2 mg/kg) of 0.365 ± 0.0426 µg·h/mL, an AUC(0-inf) ([2]; iv, i.v. 2 mg/kg) of 0.367 ± 0.043 µg·h/mL and a Tmax ([2]; iv, i.v. 2 mg/kg) of 0.0833 h. The clearance ([2]; iv, i.v. 2 mg/kg) was 5.5 L/h/kg, the half-life ([2]; iv, i.v. 2 mg/kg) was 0.967 ± 0.214 h and the MRT last ([2]; iv, i.v. 2 mg/kg) was 0.529 ± 0.0268 h. The MRT inf ([2]; iv, i.v. 2 mg/kg) was 0.57 ± 0.0206 h, the Vd ([2]; iv, i.v. 2 mg/kg, read-out: Vz) was 7.6 ± 1.39 L/kg and the bioavailability ([2]; oral, p.o. 10 mg/kg vs i.v. 2 mg/kg, read-out: oral bioavailability (F)) was 1.35%. It also gave an AUC(0-inf) ([2]; po, p.o. 10 mg/kg) of 0.0295 ± 0.00159 µg·h/mL, a Tmax ([2]; po, p.o. 10 mg/kg) of 1.67 h and a half-life ([2]; po, p.o. 10 mg/kg) of 2.4 ± 1.15 h. It also gave an MRT last ([2]; po, p.o. 10 mg/kg) of 1.56 ± 0.358 h, an MRT inf ([2]; po, p.o. 10 mg/kg) of 2.85 ± 0.862 h and a Cmax ([2]; po, p.o. 10 mg/kg) of 0.0139 ± 0.00642 µg/mL. It also gave an AUC(0-t) ([2]; po, p.o. 10 mg/kg) of 0.0247 ± 0.00111 µg·h/mL, an NAT10 degradation rate (NAT10; SiHa cells, 1.25 μM, 36 h) of 28% and an NAT10 degradation rate (NAT10; SiHa cells, 2.5 μM, 36 h) of 32%. For the same compound, the NAT10 degradation rate (NAT10; SiHa cells, 5 μM, 36 h) was 40%, the NAT10 degradation rate (NAT10; SiHa cells, 10 μM, 36 h) was 43% and the “NAT10 degradation rate (maximum)” value (NAT10; SiHa cells, 20 μM, 36 h) was 69%. The NAT10 degradation (NAT10; SiHa cells, after 24 h) was 20%, the NAT10 degradation rate (NAT10; SiHa cells, panel TP1–32 at the same time and concentration, Figure 1E) was 71% and the “hook effect in NAT10 degradation” value (NAT10; concentrations as high as 20 μM) was “did not exhibit the classical hook effect”.
